Entries after “also recorded” stand apart in the source; their conditions may differ.
Assays:
sEH [1] = target: T1, sEH (Homo sapiens, UniProt P34913); test: sEH inhibition (cellular); assay type: cell-based
T1 sequence (P34913 1-555): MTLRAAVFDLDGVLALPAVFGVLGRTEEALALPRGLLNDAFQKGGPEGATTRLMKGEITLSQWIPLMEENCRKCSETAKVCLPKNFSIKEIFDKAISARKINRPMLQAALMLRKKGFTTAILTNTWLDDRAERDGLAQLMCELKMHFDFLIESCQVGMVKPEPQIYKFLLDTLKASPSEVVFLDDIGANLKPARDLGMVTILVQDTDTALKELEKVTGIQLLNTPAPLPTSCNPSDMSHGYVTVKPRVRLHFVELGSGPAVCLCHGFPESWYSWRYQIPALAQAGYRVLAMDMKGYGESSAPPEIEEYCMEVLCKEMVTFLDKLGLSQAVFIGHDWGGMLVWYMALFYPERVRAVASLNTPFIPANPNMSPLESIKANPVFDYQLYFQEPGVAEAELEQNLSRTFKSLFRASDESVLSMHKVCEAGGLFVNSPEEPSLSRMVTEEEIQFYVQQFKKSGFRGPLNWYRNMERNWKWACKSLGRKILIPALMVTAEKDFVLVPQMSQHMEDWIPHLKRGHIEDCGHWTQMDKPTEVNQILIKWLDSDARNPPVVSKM

sEH [2] = target: T1, sEH; test: sEH inhibition (enzyme); assay type: biochemical
UUO mice [3] = test: UUO renal fibrosis model, Protocol 2 (interventional treatment); assay type: in vivo, Male C57Bl/6J mice
Description: This study was approved and conducted according to guidelines of the Institutional Animal Care and Use Committee, Medical College of Wisconsin. The Biomedical Resource Center at the Medical College of Wisconsin housed animals with free access to water and food and a 12/12 h light-dark cycle. Male C57B1/6J mice (8-10 weeks old) were purchased from Jackson Laboratories, Bar Harbor, Me. Mice were administered 2.0% isoflurane to induce anesthesia prior to UUO surgery. UUO surgery was conducted with by obstructing the left ureter proximal to the renal pelvis using a 6-o silk tie (Sharma et al., 2016; Kim et al., 2015). Mice with sham surgery went through the same procedure as the UUO mice except that the ureter was not ligated. Two experimental protocols were used to determine renal antifibrotic actions of DM509 and in both protocols the mice were subjected to Sham surgery (n=6/protocol) or Unilateral Ureteral Obstruction (UUO) surgery to induce renal fibrosis. In Protocol 1, mice went through UUO surgery after 24 hours pre-treatment of DM509 (10 mg/kg/d, p.o., n=8) or vehicle (n=8) and blood and kidney tissue were collected at day 10 of the UUO surgery. Mice of the Protocol 2 treated with DM509 (n=8) or vehicle (n=8) after 3 days of UUO surgery and continued for 7 days followed by blood and kidney tissue collection. Kidney samples for histological and immune-histological studies were fixed in 10% buffered formalin and stored at room temperature. Serum and tissue samples for biochemical and gene expression analysis were snap-frozen in liquid nitrogen and stored at […]. Kidney hydroxyproline levels were measured using a commercially available kit (Sigma Aldrich, USA). Blood urea nitrogen (BUN) is measured using a kit from Arbor Assay, USA and monocyte chemoattractant protein-1 (MCP-1) was measured using kit from R&D Systems, Inc., USA. Renal mRNA expression for several fibrotic [fibronectin, α-smooth muscle actin (α-SMA), fibroblast specific protein-1 (FSP-1], tubular injury [NGAL, kidney injury molecule-1 (KIM-1), Claudins1,3,4,5], inflammatory (TNF-α, IL1β, IL-6, ICAM, VCAM) were studied by Real Time-PCR (RT-PCR) analysis. RNeasy Mini Kit (QIAGEN, Calif., USA) was used according to the manufacturer's protocol and messenger RNA (mRNA) was prepared from each sample homogenate. The mRNA samples were quantified spectrophotometrically and 1 μg of total RNA was reverse-transcribed to cDNA using iScript™ Select cDNA Synthesis Kit (Bio-Rad, Hercules, Calif., USA). Gene expression was quantified by iScript One-Step RT-PCR Kit with SYBR green using the MyiQ™ Single Color Real-Time PCR Detection System (Bio-Rad Laboratories, Hercules, Calif., USA). Dissociation curve analysis was accomplished with iQ5 Optical System Software, Version 2.1 (Bio-Rad Laboratories, Hercules, Calif., USA), and each amplified sample analysed for homogeneity. Denaturation was done at 95° C. for 2 min followed by 40 cycles conducted at 95° C. for 10 s and at 60° C. for 30 s. All samples were run in triplicate and fold change in gene expression compared to controls determined by comparative threshold cycle (Ct) method. Target gene expression levels were determined by normalizing Ct values to two housekeeping genes. Statistical analyses were carried out using six samples from each experimental group and comparing to the control group. […] PAS-stained tissue was evaluated for tubular injury whilst PSR was used to determine collagen-positive renal interstitial fibrosis levels. Histopathological changes were scored as published previously and scores presented as a percentage area-fraction relative to the total area analysed. Tubular injury (PAS-cast areas) and interstitial fibrosis (PSR-collagen positive areas) scoring was performed in a blinded fashion by two observers. […]

C57BL/6JRj mice = test: DIO NASH model (Gubra Amylin NASH Diet); assay type: in vivo; details: 12 weeks, DM or MH 10 mg/kg, Obeticholic Acid 30 mg/kg
Description: In vivo effects of the compounds (DM and MH) were examined in a NASH model which is outlined by the timeline in FIG. 8A. 41 weeks before treatment NASH was induced in C57BL/6JRj mice by using the Gubra Amylin NASH Diet. After stratification, randomization and base-line measurements the mice were divided into four groups (16 mice per group). Each group was either dosed with 10 mg/kg of DM or MH, 30 mg/kg Obeticholic Acid or vehicle for 12 weeks respectively. […] After four weeks of treatment (FIG. 8C) and after termination (FIG. 8D) biochemical parameters were determined to examine and compare liver health (plasma alanine aminotransferase and plasma aspartate aminotransferase) and lipid homeostasis (plasma triglycerides and plasma total cholesterol) among treatment groups and healthy mice. Furthermore, livers of all animals were analyzed by histopathology and the use of immuno-histochemistry (FIG. 9 and FIG. 10). […] Inflammatory effects in the treatment groups are shown in FIG. 13a in a similar manner including a post-treatment histopathological analysis of inflammatory markers for the different treatment groups in FIG. 13b to investigate the anti-inflammatory in vivo activity of the compounds.

UUO mice [4] = test: UUO renal fibrosis model, Protocol 1 (preventive pre-treatment); assay type: in vivo, Male C57Bl/6J mice
Description: This study was approved and conducted according to guidelines of the Institutional Animal Care and Use Committee, Medical College of Wisconsin. The Biomedical Resource Center at the Medical College of Wisconsin housed animals with free access to water and food and a 12/12 h light-dark cycle. Male C57B1/6J mice (8-10 weeks old) were purchased from Jackson Laboratories, Bar Harbor, Me. Mice were administered 2.0% isoflurane to induce anesthesia prior to UUO surgery. UUO surgery was conducted with by obstructing the left ureter proximal to the renal pelvis using a 6-o silk tie (Sharma et al., 2016; Kim et al., 2015). Mice with sham surgery went through the same procedure as the UUO mice except that the ureter was not ligated. Two experimental protocols were used to determine renal antifibrotic actions of DM509 and in both protocols the mice were subjected to Sham surgery (n=6/protocol) or Unilateral Ureteral Obstruction (UUO) surgery to induce renal fibrosis. In Protocol 1, mice went through UUO surgery after 24 hours pre-treatment of DM509 (10 mg/kg/d, p.o., n=8) or vehicle (n=8) and blood and kidney tissue were collected at day 10 of the UUO surgery. Mice of the Protocol 2 treated with DM509 (n=8) or vehicle (n=8) after 3 days of UUO surgery and continued for 7 days followed by blood and kidney tissue collection. […] Kidney hydroxyproline levels were measured using a commercially available kit (Sigma Aldrich, USA). Blood urea nitrogen (BUN) is measured using a kit from Arbor Assay, USA and monocyte chemoattractant protein-1 (MCP-1) was measured using kit from R&D Systems, Inc., USA. Renal mRNA expression for several fibrotic [fibronectin, α-smooth muscle actin (α-SMA), fibroblast specific protein-1 (FSP-1], tubular injury [NGAL, kidney injury molecule-1 (KIM-1), Claudins1,3,4,5], inflammatory (TNF-α, IL1β, IL-6, ICAM, VCAM) were studied by Real Time-PCR (RT-PCR) analysis. RNeasy Mini Kit (QIAGEN, Calif., USA) was used according to the manufacturer's protocol and messenger RNA (mRNA) was prepared from each sample homogenate. The mRNA samples were quantified spectrophotometrically and 1 μg of total RNA was reverse-transcribed to cDNA using iScript™ Select cDNA Synthesis Kit (Bio-Rad, Hercules, Calif., USA). Gene expression was quantified by iScript One-Step RT-PCR Kit with SYBR green using the MyiQ™ Single Color Real-Time PCR Detection System (Bio-Rad Laboratories, Hercules, Calif., USA). Dissociation curve analysis was accomplished with iQ5 Optical System Software, Version 2.1 (Bio-Rad Laboratories, Hercules, Calif., USA), and each amplified sample analysed for homogeneity. […] All samples were run in triplicate and fold change in gene expression compared to controls determined by comparative threshold cycle (Ct) method. […]

FXR [5] = target: T2, FXR (Homo sapiens, UniProt Q96RI1); test: FXR activation (EC50, efficacy vs GW4064, mode); assay type: cell-based
T2 sequence (Q96RI1 1-486): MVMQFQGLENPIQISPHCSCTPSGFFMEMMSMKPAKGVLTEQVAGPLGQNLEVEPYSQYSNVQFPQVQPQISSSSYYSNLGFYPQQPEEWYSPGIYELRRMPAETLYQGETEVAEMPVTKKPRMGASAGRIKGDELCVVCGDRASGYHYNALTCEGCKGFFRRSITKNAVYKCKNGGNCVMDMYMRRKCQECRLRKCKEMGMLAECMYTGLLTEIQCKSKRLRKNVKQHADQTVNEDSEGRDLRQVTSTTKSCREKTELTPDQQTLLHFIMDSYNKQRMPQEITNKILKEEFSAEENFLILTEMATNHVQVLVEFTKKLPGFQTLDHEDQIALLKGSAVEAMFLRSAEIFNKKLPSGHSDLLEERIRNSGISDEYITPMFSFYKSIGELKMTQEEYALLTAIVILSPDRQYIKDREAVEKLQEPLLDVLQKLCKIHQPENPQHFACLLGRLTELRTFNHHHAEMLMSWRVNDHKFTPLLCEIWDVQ

FXR [6] = target: T2, FXR; test: FXR binding (Kd)
[7] = interventional treatment 10 mg/kg/d, 7 days
[8] = DM509 pre-treatment 10 mg/kg/d p.o., day 10

CC(C)(C)c1ccc(C(=O)NCc2ccc(NS(C)(=O)=O)cc2Cl)cc1 [DM509]
IC50 (sEH [1]): 1 nM
IC50 (sEH [2]): 4 nM
renal CD45 positive inflammatory cell infiltration (in words) (UUO mice [3]): reduced infiltration of these cells
renal VE-cadherin mRNA and CD31 positive cells (in words) (UUO mice [3]): markedly mitigated the decrease of VE-cadherin and CD31 positive cells
renal inflammation: renal MCP-1 level and cytokine (TNF-α, IL1β, IL6) expression (in words) (UUO mice [3]): markedly mitigated renal inflammation; also recorded: reduced renal inflammation
renal mRNA expression of claudins (in words) (UUO mice [3]): re-stored the mRNA expressions of claudins 1,3,4 and 5; also recorded: restoring claudin expressions
renal mRNA expression of tubular injury markers KIM-1 and NGAL (in words) (UUO mice [3]): mitigated this marked elevation
renal mRNA expression of vascular inflammatory markers ICAM and VCAM (in words) (UUO mice [3]): mitigated elevated expression
peritubular vascular density assessed by CD31 expression (in words) (UUO mice [3]; interventional treatment): mitigated vascular density loss
EMT: mesenchymal (FSP-1, fibronectin, α-SMA) and epithelial (E-cadherin) marker expressions in kidney (in words) (UUO mice [3]; interventional treatment 10 mg/kg/d): markedly attenuated EMT; also recorded: markedly reduced EMT
reduction of BUN (UUO mice [3]; interventional treatment 10 mg/kg/d in drinking water, 7 days): 40%
reduction of collagen positive area (UUO mice [3]; [7]): 65%
reduction of kidney hydroxyproline content (UUO mice [3]; [7]): 41%
reduction of renal ICAM and VCAM gene expression (UUO mice [3]; [7]): 40-50%
reduction of tubular injury markers (KIM-1, NGAL) (UUO mice [3]; [7]): 25-50%
renal fibrosis: collagen positive area and renal hydroxyproline content (in words) (UUO mice [3]; treatment from day 3 after UUO for 7 days): markedly mitigated renal fibrosis
cumulative daily food intake, difference among treatment groups (C57BL/6JRj mice): neither differences in cummulative daily food intake
lower collagen positive area than vehicle (UUO mice [4]; [8]): 54%
lower renal mRNA expression of fibrotic markers (α-SMA, fibronectin) than vehicle (UUO mice [4]; [8]): 40-60%
lower renal mRNA expression of inflammatory markers (UUO mice [4]; [8]): 50-80%
kidney fibrosis (in words) (UUO mice [4]; preventive treatment 10 mg/kg/d): decreased UUO kidney fibrosis
EC50 (FXR [5]): 20 nM
FXR efficacy (FXR [5]): 35 % of GW4064
FXR mode of action (FXR [5]): partial agonist

CC(C)(C)c1ccc(C(=O)NCc2ccc(NS(C)(=O)=O)cc2Cl)s1 [MH]
IC50 (sEH [1]): < 1 nM
Kd (FXR [6]): 1400 nM
IC50 (sEH [2]): < 1 nM
cumulative daily food intake, difference among treatment groups (C57BL/6JRj mice): neither differences in cummulative daily food intake
FXR mode of action (FXR [5]): selective modulator

CC[C@H]1[C@@H](O)[C@@H]2[C@H](CC[C@]3(C)[C@@H]([C@H](C)CCC(=O)O)CC[C@@H]23)[C@@]2(C)CC[C@@H](O)C[C@@H]12 [Obeticholic Acid, reference compound]
cumulative daily food intake, difference among treatment groups (C57BL/6JRj mice): neither differences in cummulative daily food intake
